pIC50: −log10 of the molar value.
What was measured:
[1] = test system: MDA-MB-231; assay: Cytotoxicity against human MDA-MB-231 cells assessed as reduction of cell viability at 200 uM after 72 hrs by MTT assay relative to control; format: functional
[2] = test system: OVCAR-8; assay: Cytotoxicity against human OVCAR8 cells; format: functional
[3] = test system: SF-295; assay: Cytotoxicity against human SF295 cells; format: functional
[4] = target: Histone deacetylase 4 (Homo sapiens, UniProt P56524); assay: Inhibition of HDAC4 (unknown origin)
Histone deacetylase 4, sequence (P56524 whole entry): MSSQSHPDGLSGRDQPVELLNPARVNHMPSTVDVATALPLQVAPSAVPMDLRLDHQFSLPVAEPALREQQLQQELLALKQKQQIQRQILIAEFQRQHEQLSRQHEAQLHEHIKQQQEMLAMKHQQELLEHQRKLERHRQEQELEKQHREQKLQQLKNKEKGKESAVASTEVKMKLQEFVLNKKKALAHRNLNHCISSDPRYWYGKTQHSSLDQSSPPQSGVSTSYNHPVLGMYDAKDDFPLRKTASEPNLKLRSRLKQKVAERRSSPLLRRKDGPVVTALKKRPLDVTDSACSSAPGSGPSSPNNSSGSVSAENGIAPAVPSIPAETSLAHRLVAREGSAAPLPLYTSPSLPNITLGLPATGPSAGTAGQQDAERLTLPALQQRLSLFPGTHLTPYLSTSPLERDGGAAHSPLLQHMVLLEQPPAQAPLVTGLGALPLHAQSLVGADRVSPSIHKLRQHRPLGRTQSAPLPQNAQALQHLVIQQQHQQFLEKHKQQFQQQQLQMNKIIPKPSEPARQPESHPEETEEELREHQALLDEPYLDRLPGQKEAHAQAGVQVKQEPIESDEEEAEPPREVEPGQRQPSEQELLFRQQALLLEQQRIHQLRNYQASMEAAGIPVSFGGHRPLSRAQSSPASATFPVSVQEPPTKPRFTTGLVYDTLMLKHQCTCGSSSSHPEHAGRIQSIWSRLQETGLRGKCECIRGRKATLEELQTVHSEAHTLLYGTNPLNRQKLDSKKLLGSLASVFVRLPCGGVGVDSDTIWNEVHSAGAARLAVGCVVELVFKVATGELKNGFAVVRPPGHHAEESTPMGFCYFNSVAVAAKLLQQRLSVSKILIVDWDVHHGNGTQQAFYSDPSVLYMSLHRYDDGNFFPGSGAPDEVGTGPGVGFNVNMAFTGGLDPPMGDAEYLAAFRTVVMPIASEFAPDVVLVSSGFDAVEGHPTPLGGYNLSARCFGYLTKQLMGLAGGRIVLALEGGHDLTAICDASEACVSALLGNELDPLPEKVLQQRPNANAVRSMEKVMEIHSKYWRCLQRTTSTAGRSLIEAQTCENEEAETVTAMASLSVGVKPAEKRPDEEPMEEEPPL

[5] = test system: OVCAR-5; assay: Cytotoxicity against human OVCAR5 cells; format: functional
[6] = test system: HT-29; assay: Cytotoxicity against human HT-29 cells; format: functional
[7] = target: Histone deacetylase; format: cell-based, Homo sapiens; conditions: hela
[8] = test system: NCI-H23; assay: Cytotoxicity against human NCI-H23 cells; format: functional
[9] = test system: PC-3; assay: Cytotoxicity against human PC3 cells; format: functional
[10] = test system: HCT-15; assay: Cytotoxicity against human HCT15 cells; format: functional
[11] = test system: UACC-62; assay: Cytotoxicity against human UACC62 cells; format: functional
[12] = target: Vascular endothelial growth factor receptor 1 (Homo sapiens, UniProt P17948); assay: Inhibition of VEGFR1 (unknown origin); conditions: read-out: IC50
Vascular endothelial growth factor receptor 1, sequence (P17948 whole entry): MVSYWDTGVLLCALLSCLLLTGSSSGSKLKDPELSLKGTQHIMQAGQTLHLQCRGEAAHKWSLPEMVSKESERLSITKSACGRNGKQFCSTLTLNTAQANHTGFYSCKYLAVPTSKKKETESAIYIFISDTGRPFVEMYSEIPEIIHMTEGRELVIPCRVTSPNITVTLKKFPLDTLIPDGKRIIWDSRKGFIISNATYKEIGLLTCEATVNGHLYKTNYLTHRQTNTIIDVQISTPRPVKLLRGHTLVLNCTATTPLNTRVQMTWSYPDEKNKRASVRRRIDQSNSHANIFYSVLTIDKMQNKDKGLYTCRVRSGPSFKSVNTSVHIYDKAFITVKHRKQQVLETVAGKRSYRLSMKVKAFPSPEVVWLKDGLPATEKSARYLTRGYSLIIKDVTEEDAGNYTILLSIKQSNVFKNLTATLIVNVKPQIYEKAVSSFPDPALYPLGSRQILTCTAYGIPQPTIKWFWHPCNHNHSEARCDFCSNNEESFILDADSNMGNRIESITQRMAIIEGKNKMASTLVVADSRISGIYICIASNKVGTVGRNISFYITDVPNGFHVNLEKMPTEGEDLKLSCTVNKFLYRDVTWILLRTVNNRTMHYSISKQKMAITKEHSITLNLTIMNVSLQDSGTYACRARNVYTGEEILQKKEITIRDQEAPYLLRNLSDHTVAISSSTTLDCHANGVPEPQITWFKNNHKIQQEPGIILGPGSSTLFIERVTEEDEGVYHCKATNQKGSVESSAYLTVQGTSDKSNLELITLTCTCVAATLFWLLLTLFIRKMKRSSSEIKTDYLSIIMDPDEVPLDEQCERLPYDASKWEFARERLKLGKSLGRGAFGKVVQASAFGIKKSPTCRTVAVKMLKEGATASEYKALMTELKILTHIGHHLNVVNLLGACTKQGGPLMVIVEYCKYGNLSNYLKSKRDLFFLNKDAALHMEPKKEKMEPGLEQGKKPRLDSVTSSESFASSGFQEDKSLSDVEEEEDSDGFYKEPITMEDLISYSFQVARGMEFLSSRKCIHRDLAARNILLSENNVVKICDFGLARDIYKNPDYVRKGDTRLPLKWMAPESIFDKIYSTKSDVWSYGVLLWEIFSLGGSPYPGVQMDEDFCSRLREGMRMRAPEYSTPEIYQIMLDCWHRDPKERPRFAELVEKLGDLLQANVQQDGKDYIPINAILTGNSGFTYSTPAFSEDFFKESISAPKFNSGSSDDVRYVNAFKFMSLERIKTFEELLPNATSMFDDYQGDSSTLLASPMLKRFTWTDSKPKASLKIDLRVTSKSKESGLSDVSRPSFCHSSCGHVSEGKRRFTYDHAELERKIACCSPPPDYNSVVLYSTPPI

[13] = test system: A498; assay: Cytotoxicity against human A498 cells; format: functional
[14] = test system: TK-10; assay: Cytotoxicity against human TK10 cells; format: functional
[15] = test system: COLO 205; assay: Cytotoxicity against human COLO205 cells; format: functional
[16] = test system: SNB-19; assay: Cytotoxicity against human SNB19 cells; format: functional
[17] = test system: NCI-H522; assay: Cytotoxicity against human NCI-H522 cells; format: functional
[18] = test system: OVCAR-4; assay: Cytotoxicity against human OVCAR4 cells; format: functional
[19] = test system: SK-OV-3; assay: Cytotoxicity against human SKOV3 cells; format: functional
[20] = test system: MDA-MB-231; assay: Cytotoxicity against human MDA-MB-231 cells assessed as reduction of cell viability after 72 hrs by MTT assay; format: functional, cell-based; conditions: MDA-MB-231, 72 h
[21] = test system: HOP-92; assay: Cytotoxicity against human HOP92 cells; format: functional
[22] = Cytotoxicity against human NCI-ADR-RES cells; format: functional
[23] = target: Platelet-derived growth factor receptor alpha (Homo sapiens, UniProt P16234); assay: Inhibition of PDGFRa (unknown origin); conditions: read-out: IC50
[24] = target: Platelet-derived growth factor receptor beta (Homo sapiens, UniProt P09619); assay: Inhibition of PDGFRb (unknown origin); conditions: read-out: IC50
Platelet-derived growth factor receptor beta, sequence (P09619 whole entry): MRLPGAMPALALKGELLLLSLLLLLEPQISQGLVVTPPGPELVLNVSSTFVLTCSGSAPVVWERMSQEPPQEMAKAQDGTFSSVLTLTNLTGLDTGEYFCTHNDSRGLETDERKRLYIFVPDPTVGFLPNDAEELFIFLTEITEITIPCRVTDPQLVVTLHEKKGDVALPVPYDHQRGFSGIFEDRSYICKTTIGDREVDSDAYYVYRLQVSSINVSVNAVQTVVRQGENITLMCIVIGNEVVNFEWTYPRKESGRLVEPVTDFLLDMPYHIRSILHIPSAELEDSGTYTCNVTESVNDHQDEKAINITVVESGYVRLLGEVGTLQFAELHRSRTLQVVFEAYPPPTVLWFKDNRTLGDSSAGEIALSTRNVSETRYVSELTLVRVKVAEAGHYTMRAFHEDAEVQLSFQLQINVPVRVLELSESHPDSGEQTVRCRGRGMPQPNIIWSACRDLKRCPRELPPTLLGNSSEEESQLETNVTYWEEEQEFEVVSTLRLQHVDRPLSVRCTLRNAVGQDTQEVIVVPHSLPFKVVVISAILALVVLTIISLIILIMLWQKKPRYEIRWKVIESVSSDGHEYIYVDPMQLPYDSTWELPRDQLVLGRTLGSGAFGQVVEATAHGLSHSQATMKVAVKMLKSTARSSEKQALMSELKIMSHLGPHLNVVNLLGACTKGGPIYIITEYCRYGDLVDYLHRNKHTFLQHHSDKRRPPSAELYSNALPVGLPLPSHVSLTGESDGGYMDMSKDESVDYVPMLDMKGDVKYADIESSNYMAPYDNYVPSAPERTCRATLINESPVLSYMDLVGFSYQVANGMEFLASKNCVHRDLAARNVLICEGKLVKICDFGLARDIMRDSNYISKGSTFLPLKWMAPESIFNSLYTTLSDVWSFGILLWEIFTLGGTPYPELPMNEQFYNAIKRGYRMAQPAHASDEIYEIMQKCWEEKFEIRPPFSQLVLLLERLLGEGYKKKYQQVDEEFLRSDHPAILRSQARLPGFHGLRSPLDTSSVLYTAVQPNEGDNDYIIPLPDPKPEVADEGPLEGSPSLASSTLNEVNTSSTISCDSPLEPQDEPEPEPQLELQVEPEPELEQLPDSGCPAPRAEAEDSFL

[25] = target: T1, Protein deacetylase HDAC6 (Homo sapiens, UniProt Q9UBN7); assay: Inhibition of HDAC6 (unknown origin); conditions: read-out: IC50
T1 sequence (Q9UBN7 whole entry): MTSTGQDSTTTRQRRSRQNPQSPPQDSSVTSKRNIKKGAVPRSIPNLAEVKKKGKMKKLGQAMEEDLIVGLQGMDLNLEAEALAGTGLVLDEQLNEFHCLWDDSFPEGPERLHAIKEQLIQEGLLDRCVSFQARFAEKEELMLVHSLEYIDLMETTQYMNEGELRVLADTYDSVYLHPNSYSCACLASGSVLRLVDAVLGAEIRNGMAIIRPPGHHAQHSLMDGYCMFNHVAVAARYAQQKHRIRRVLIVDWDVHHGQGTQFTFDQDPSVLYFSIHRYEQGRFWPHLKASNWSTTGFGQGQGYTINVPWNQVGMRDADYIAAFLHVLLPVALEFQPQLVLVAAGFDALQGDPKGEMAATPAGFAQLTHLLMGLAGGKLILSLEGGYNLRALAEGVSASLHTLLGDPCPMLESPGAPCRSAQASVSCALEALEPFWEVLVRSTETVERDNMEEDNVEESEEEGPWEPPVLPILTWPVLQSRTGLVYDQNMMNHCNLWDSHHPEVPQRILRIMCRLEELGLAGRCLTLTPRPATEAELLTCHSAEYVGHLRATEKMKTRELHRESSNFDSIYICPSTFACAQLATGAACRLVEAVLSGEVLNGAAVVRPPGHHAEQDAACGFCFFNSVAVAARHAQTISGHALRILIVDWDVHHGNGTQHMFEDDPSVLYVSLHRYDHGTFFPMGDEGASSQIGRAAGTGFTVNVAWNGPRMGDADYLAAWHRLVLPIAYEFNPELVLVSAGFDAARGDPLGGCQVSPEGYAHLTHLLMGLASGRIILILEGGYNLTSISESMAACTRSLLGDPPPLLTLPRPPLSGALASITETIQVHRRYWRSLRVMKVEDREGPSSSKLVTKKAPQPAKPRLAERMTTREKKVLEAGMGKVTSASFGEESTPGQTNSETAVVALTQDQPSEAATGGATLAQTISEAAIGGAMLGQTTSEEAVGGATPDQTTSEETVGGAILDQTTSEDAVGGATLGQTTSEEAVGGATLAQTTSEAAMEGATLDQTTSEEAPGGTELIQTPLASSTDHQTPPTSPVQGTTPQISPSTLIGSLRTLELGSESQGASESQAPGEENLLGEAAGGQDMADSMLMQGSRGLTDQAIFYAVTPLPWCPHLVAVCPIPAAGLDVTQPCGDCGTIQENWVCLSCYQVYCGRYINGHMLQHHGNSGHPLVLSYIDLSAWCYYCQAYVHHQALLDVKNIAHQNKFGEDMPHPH

[26] = test system: SK-MEL-5; assay: Cytotoxicity against human SK-MEL-5 cells; format: functional
[27] = test system: SF-268; assay: Cytotoxicity against human SF268 cells; format: functional
[28] = target: T2, Histone deacetylase 8 (Homo sapiens, UniProt Q9BY41); assay: Inhibition of HDAC8 (unknown origin); conditions: read-out: IC50
T2 sequence (Q9BY41 whole entry): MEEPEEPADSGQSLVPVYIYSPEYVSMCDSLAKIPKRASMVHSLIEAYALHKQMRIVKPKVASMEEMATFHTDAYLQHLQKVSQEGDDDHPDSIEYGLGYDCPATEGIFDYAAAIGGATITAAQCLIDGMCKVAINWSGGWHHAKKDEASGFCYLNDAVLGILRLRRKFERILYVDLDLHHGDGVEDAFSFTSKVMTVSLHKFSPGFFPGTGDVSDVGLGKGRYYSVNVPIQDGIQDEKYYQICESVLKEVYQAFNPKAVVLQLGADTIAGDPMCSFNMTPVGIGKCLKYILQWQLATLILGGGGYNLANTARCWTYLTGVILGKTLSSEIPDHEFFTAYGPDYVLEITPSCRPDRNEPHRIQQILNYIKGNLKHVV

[29] = test system: SF-539; assay: Cytotoxicity against human SF539 cells; format: functional
[30] = test system: SK-MEL-2; assay: Cytotoxicity against human SK-MEL-2 cells; format: functional
[31] = test system: SW-620; assay: Cytotoxicity against human SW620 cells; format: functional
[32] = test system: HOP-62; assay: Cytotoxicity against human HOP62 cells; format: functional
[33] = test system: UACC-257; assay: Cytotoxicity against human UACC257 cells; format: functional
[34] = target: Vascular endothelial growth factor receptor 2 (Homo sapiens, UniProt P35968); assay: Inhibition of VEGFR2 (unknown origin); conditions: read-out: IC50
Vascular endothelial growth factor receptor 2, sequence (P35968 whole entry): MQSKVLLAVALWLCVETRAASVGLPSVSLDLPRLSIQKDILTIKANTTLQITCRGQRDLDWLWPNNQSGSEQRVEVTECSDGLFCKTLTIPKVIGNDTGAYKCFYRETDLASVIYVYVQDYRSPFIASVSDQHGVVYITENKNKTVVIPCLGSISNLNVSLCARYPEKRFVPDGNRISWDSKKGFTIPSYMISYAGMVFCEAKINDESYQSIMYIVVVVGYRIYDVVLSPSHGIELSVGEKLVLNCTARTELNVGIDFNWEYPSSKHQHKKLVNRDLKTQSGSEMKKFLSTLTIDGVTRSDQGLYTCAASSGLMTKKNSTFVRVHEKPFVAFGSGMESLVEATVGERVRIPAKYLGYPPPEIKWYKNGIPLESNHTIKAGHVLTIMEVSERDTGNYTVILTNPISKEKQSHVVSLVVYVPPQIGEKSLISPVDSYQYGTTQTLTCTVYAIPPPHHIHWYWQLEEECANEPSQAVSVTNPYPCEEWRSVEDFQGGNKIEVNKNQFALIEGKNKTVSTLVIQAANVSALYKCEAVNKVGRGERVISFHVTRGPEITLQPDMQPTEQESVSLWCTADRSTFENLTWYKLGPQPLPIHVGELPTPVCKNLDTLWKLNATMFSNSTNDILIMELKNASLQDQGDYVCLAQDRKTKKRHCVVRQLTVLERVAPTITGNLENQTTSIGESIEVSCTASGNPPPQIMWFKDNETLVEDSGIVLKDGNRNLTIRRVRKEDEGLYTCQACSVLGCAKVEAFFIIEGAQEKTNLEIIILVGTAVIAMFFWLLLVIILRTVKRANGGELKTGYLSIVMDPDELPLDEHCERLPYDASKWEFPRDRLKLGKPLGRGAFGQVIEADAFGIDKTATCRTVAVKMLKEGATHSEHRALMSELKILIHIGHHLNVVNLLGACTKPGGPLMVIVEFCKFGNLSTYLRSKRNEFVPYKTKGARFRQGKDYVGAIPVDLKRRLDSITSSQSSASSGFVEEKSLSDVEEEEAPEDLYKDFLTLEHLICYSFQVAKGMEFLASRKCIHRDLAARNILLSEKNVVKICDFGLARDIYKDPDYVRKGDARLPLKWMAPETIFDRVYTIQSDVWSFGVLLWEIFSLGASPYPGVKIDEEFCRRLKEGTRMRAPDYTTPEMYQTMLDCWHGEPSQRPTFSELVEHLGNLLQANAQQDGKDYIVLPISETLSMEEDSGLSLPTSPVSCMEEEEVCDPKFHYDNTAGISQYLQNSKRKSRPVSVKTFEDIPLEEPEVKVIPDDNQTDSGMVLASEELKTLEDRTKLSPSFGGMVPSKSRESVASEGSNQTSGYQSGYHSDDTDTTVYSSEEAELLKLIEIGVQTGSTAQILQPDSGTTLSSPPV

[35] = test system: NCI-H226; assay: Cytotoxicity against human NCI-H226 cells; format: functional

Q: With `O=C(CCCCCCC(=O)Nc1ccc2c(c1)/C(=C/c1ccc[nH]1)C(=O)N2)NO` as the compound, how does the Activity [1] read?
A: 30%

Q: And the GI50 [2]?
A: 499 nM

Q: What about the GI50 [3] of the same compound?
A: 1310 nM

Q: What about the IC50 [4] of the same compound?
A: Not Active

Q: What about the GI50 [5] of the same compound?
A: 1120 nM

Q: And the GI50 [6]?
A: 612 nM

Q: And the IC50 [7]?
A: 117 nM

Q: What about the GI50 [8] of the same compound?
A: 1320 nM

Q: What about the GI50 [9] of the same compound?
A: 917 nM

Q: And the GI50 [10]?
A: 4.59 µM

Q: What about the GI50 [11] of the same compound?
A: 301 nM

Q: What about the pIC50 [12] of the same compound?
A: 6.44

Q: What about the GI50 [13] of the same compound?
A: 365 nM

Q: And the GI50 [14]?
A: 795 nM

Q: And the GI50 [15]?
A: 248 nM

Q: And the GI50 [16]?
A: 644 nM

Q: What about the GI50 [17] of the same compound?
A: 87 nM

Q: What about the GI50 [18] of the same compound?
A: 1270 nM

Q: And the GI50 [19]?
A: 363 nM

Q: What about the pIC50 [20] of the same compound?
A: 4.54

Q: What about the GI50 [21] of the same compound?
A: 412 nM

Q: And the GI50 [22]?
A: 4 µM

Q: And the pIC50 [23]?
A: 5.93

Q: And the pIC50 [24]?
A: 6.73

Q: What about the pIC50 [25] of the same compound?
A: 9.49

Q: What about the GI50 [26] of the same compound?
A: 243 nM

Q: What about the GI50 [27] of the same compound?
A: 1190 nM

Q: What about the pIC50 [28] of the same compound?
A: 7.22

Q: And the GI50 [29]?
A: 605 nM

Q: What about the GI50 [30] of the same compound?
A: 989 nM

Q: What about the GI50 [31] of the same compound?
A: 275 nM

Q: And the GI50 [32]?
A: 381 nM

Q: What about the GI50 [33] of the same compound?
A: 370 nM

Q: And the pIC50 [34]?
A: 6.63

Q: What about the GI50 [35] of the same compound?
A: 2320 nM

— ChEMBL document CHEMBL3621077, “Synthesis of hybrid anticancer agents based on kinase and histone deacetylase inhibitors” (Medchemcomm, 2014)
